Measurements published in patent publication US11040987B2 (TenNor Therapeutics Limited, priority 2019, dated 2021).
pIC50: −log10 of the molar value. ≈ marks a conversion by molar mass, not a printed value. Read-outs that look alike come from different tables or passages of the source.

Experiments:
VIM-1 = target: T1, VIM-1 (Pseudomonas aeruginosa, UniProt A0A0F7KYQ8); assay: β-lactamase inhibition, spectrophotometric assay of nitrocefin hydrolysis; assay type: biochemical; settings: for pIC50: class B β-lactamase, 10 μM ZnSO4, 200 μM nitrocefin, 25° C., 2 hours, read-out: IC50 VIM-1
T1 construct: made in house
Description: (§1) Hydrolytic inactivation of the β-lactam antibiotics by β-lactamases is the most widespread drug resistant mechanism and the most challenge clinically among Gram-negative bacterial pathogens. Based on the amino acid sequences, the β-lactamases are grouped into four classes (Ambler classification), of which A, C and D are serine hydrolases and B encompasses metallo-β-lactamases. The IC50 of selected derivatives disclosed herein (identified with reference to example number) plus six reference β-lactam or β-lactamase inhibitors were determined against 7 representative β-lactamases of various classes in a standard spectrophotometric assay of nitrocefin hydrolysis. The assay is performed in 384-well plate. The seven recombinant β-lactamases AmpC_AB (from A. baumannii), AmpC_PA (from P. aeruginosa), KPC-2, NDM-1, IMP-1, VIM-1 and OXA 24/40) are expressed and purified. The reaction buffer for class A, C and D enzymes is 100 mM Na2HPO4—KH2PO4 (pH 7.1) plus 0.005% Tween-20, and for class B enzymes 10 μM ZnSO4 is added. […] The 50 μL of reaction solution composed of 2 pM of β-lactamase, 200 μM of nitrocefin and series of 3-fold dilutions of test or control compounds are added by Cybio SELMA system into 384-plate and incubated in dark at 25° C. for 2 hours. The OD490 is read in MC SpectraMax Plus384 plate reader.

OXA 24/40 = target: T2, OXA 24/40 (Acinetobacter baumannii, UniProt Q8RLA6); assay: as above; assay type: biochemical
T2 construct: made in house
T2 sequence (Q8RLA6 22-275): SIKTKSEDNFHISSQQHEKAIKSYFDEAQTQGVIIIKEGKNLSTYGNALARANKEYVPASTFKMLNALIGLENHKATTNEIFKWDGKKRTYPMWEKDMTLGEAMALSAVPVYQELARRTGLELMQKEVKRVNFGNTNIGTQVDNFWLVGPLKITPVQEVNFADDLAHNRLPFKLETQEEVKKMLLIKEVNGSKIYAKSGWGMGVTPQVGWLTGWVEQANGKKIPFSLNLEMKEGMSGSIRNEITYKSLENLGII
Description: as §1

AmpC_AB = AmpC_AB (Acinetobacter baumannii, UniProt Q6DRA1); assay: as above; assay type: biochemical
Description: as §1

KPC-2 = target: T3, KPC-2 (Klebsiella pneumoniae, UniProt Q9F663); assay: as above; assay type: biochemical; settings: class A β-lactamase; 200 μM nitrocefin, 25° C., 2 hours; read-out: IC50 KPC-2
T3 construct: made in house
T3 sequence (Q9F663 25-293, looked up, species assumed): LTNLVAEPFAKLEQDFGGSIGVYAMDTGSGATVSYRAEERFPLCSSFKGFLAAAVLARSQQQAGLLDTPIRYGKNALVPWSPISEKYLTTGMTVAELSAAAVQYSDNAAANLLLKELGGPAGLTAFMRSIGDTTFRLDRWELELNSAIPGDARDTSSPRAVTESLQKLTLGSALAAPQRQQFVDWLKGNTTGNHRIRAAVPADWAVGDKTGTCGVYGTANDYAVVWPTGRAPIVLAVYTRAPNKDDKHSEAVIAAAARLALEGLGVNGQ
Description: as §1

IMP-1 = target: T4, IMP-1 (Serratia marcescens, UniProt P52699); assay: as above; assay type: biochemical; settings: class B β-lactamase, 10 μM ZnSO4; 200 μM nitrocefin, 25° C., 2 hours; read-out: IC50 IMP-1
T4 construct: made in house
T4 sequence (P52699 19-246, looked up, species assumed): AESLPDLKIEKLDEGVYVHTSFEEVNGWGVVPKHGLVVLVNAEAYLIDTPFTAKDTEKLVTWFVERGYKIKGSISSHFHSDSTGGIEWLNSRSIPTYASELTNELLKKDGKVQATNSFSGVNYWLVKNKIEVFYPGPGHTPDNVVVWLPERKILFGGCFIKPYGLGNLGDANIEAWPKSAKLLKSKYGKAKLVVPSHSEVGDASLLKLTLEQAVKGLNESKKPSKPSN
Description: as §1

NDM-1 = target: T5, NDM-1 (Klebsiella pneumoniae, UniProt C7C422); assay: as above; assay type: biochemical; settings: class B β-lactamase, 10 μM ZnSO4; 200 μM nitrocefin, 25° C., 2 hours; read-out: IC50 NDM-1
T5 construct: made in house
T5 sequence (C7C422 29-270, looked up, species assumed): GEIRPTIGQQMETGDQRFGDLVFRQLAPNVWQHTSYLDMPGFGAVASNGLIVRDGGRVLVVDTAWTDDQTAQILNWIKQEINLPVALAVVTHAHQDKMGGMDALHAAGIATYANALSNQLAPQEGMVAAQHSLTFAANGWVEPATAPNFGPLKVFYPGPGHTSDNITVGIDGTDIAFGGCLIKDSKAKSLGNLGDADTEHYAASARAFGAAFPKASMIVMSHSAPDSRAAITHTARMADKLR
Description: as §1

AmpC_PA = target: T6, AmpC_PA (Pseudomonas aeruginosa, UniProt P24735); assay: as above; assay type: biochemical, P. aeruginosa
T6 construct: made in house
T6 sequence (P24735 27-397): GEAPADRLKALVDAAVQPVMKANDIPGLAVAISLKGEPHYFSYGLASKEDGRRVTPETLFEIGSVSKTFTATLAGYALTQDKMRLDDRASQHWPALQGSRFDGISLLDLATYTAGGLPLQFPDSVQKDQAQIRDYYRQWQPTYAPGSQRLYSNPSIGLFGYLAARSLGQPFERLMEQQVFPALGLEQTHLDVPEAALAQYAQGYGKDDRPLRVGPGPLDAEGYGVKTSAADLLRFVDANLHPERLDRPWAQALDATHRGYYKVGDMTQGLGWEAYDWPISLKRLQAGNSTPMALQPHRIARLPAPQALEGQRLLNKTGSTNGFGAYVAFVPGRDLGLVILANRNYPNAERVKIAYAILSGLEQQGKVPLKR
Description: as §1

A.b TNP 41709 = assay: MIC against A. baumannii clinical isolates, alone and in combination with antibiotics; assay type: cell-based; settings: for MIC: Acinetobacter baumannii, TNP41709, Compounds alone, read-out: MIC A.b TNP 41709
A.b TNP 41704 = assay: as above; assay type: cell-based; settings: for MIC: Acinetobacter baumannii, TNP41704, Compounds alone, read-out: MIC A.b TNP 41704
A.b TNP 41708 = assay: as above; assay type: cell-based; settings: for MIC: Acinetobacter baumannii, TNP41708, read-out: MIC A.b TNP 41708
Procedure: (§2) Minimum inhibitory concentration (MIC) is determined by a broth microdilution method according to the recommendation of the Clinical and Laboratory Standards Institute (CLSI) with minor modification. […] Strains of an ESKAPE panel (E. faecium ATCC 700221, S. aureus ATCC 29213, K. pneumoniae ATCC 43816, A. baumannii ATCC 19606, P. aeruginosa ATCC 27853 and Escherichia coli ATCC 25922) were obtained originally from the American Type Culture Collection (ATCC) and used for MIC determinations of compounds. The bacteria inoculum in the test is […].

P. aeruginosa ATCC 27853 = assay: MIC determination, broth microdilution, ESKAPE panel; assay type: cell-based; settings: Pseudomonas aeruginosa, ATCC27853; iron-depleted cation-adjusted Mueller-Hinton broth, 2,2-dipyridyl 160 μM; 37° C., 18-20 hours; read-out: MIC P. aeruginosa ATCC 27853
Procedure: as §2

A. baumannii ATCC 19606 = assay: as above; assay type: cell-based; settings: Acinetobacter baumannii, ATCC19606; iron-depleted cation-adjusted Mueller-Hinton broth, 2,2-dipyridyl 160 μM; 37° C., 18-20 hours; read-out: MIC A. baumannii ATCC 19606
Procedure: as §2

S. aureus ATCC 29213 = assay: as above; assay type: cell-based; settings: Staphylococcus aureus, ATCC29213; iron-depleted cation-adjusted Mueller-Hinton broth, 2,2-dipyridyl 160 μM; 37° C., 18-20 hours; read-out: MIC S. aureus ATCC 29213
Procedure: as §2

E. faecium ATCC 700221 = assay: as above; assay type: cell-based; settings: Enterococcus faecium, ATCC700221; iron-depleted cation-adjusted Mueller-Hinton broth, 2,2-dipyridyl 160 μM; 37° C., 18-20 hours; read-out: MIC E. faecium ATCC 700221
Procedure: as §2

K. pneumoniae ATCC 43816 = assay: as above; assay type: cell-based; settings: Klebsiella pneumoniae, ATCC43816; iron-depleted cation-adjusted Mueller-Hinton broth, 2,2-dipyridyl 160 μM; 37° C., 18-20 hours; read-out: MIC K. pneumoniae ATCC 43816
Procedure: as §2

[1] = system: Escherichia coli ATCC 25922; assay: as above; assay type: cell-based; settings: ATCC25922, iron-depleted cation-adjusted Mueller-Hinton broth, 2,2-dipyridyl 160 μM, 37° C., 18-20 hours, read-out: MIC E. coli ATCC 25922
Procedure: as §2

[2] = Class C β-lactamase, 200 μM nitrocefin, 25° C., 2 hours, read-out: IC50 AmpC_AB

| Compound | pIC50 (VIM-1) | pIC50 (OXA 24/40) | pIC50 (KPC-2) | pIC50 (IMP-1) | pIC50 (NDM-1) | pIC50 (AmpC_PA) | pIC50 (AmpC_AB; [2]) | other results |
| --- | --- | --- | --- | --- | --- | --- | --- | --- |
| O=C(O)[C@H]1/C(=C/CO)O[C@@H]2CC(=O)N21 [Clavulanate, reference compound] | < 3.70 | < 3.70 | < 3.70 | < 3.70 | < 3.70 | < 3.70 |  | pIC50 (AmpC_AB): < 3.70 |
| CN(/N=C/[C@@]1(C)[C@H](C(=O)O)N2C(=O)C[C@H]2S1(=O)=O)C(=O)c1ccc(O)c(O)c1Cl [Example 3, (2S,3R,5R)-3-((E)-(2-(2-chloro-3,4-dihydroxybenzoyl)-2-methylhydrazono)methyl)-3-methyl-7-oxo-4-thia-1-azabicyclo[3.2.0]heptane-2-carboxylic acid 4,4-dioxide] | < 3.70 | 5.64 | < 3.70 | < 3.70 | < 3.70 | 5.62 | 6.14 |  |
| C[C@]1(/C=N/NC(=O)c2ccc(O)c(O)c2)[C@H](C(=O)O)N2C(=O)C[C@H]2S1(=O)=O [Example 5, (2S,3R,5R)-3-((E)-(2-(3,4-dihydroxybenzoyl)hydrazono)methyl)-3-methyl-7-oxo-4-thia-1-azabicyclo[3.2.0]heptane-2-carboxylic acid 4,4-dioxide] | < 3.70 | 4.94 | < 3.70 | < 3.70 | < 3.70 | 5.77 | 5.98 | MIC (A.b TNP 41709): 32 µg/mL; MIC A.b TNP 41709 (A.b TNP 41709; Compounds + meropenem (1:1)): 2 µg/mL; MIC A.b TNP 41709 (A.b TNP 41709; Compounds + sulbactam (1:1)): 4 µg/mL; MIC (A.b TNP 41704): > 128 µg/mL; MIC A.b TNP 41704 (A.b TNP 41704; Compounds + meropenem (1:1)): 4 µg/mL; MIC A.b TNP 41704 (A.b TNP 41704; Compounds + sulbactam (1:1)): 4 µg/mL; MIC (A.b TNP 41708): > 128 µg/mL; MIC A.b TNP 41708 (A.b TNP 41708; Compounds + meropenem (1:1)): 4 µg/mL; MIC A.b TNP 41708 (A.b TNP 41708; Compounds + sulbactam (1:1)): 8 µg/mL; MIC (P. aeruginosa ATCC 27853): > 128 µg/mL; MIC (A. baumannii ATCC 19606): 4 µg/mL (≈ 10.1 µM); MIC (S. aureus ATCC 29213): 128 µg/mL (≈ 322 µM); MIC (E. faecium ATCC 700221): > 128 µg/mL; MIC (K. pneumoniae ATCC 43816): 32 µg/mL (≈ 80.5 µM); MIC [1]: 64 µg/mL (≈ 161 µM) |
| CN(/N=C/[C@@]1(C)[C@H](C(=O)O)N2C(=O)C[C@H]2S1(=O)=O)C(=O)c1ccc(O)c(O)c1 [Example 7, (2S,3R,5R)-3-((E)-(2-(3,4-dihydroxybenzoyl)-2-methylhydrazono)methyl)-3-methyl-7-oxo-4-thia-1-azabicyclo[3.2.0]heptane-2-carboxylic acid 4,4-dioxide] | 4.23 | 5.22 | < 3.70 | < 3.70 | < 3.70 | 5.82 | 6.22 | activity against VIM-1 of class B (in words) (VIM-1; text summary of Table 4): weak activity |
| C[C@]1(/C=N/NC(=O)c2cnccn2)[C@H](C(=O)O)N2C(=O)C[C@H]2S1(=O)=O [Example 19, (2S,3R,5R)-3-methyl-7-oxo-3-((E)-(2-(pyrazine-2-carbonyl)hydrazono)methyl)-4-thia-1-azabicyclo[3.2.0]heptane-2-carboxylic acid 4,4-dioxide] | < 3.70 | 5.60 | < 3.70 | < 3.70 | < 3.70 | 5.43 | 5.24 |  |
| C[C@]1(/C=N/NC(=O)c2ccc(O)c(O)c2Cl)[C@H](C(=O)O)N2C(=O)C[C@H]2S1(=O)=O [Example 23, (2S,3R,5R)-3-((E)-(2-(2-chloro-3,4-dihydroxybenzoyl)hydrazono)methyl)-3-methyl-7-oxo-4-thia-1-azabicyclo[3.2.0]heptane-2-carboxylic acid 4,4-dioxide] | < 3.70 | 5.50 | < 3.70 | < 3.70 | < 3.70 | 5.61 | 6.14 |  |
| C[C@]1(/C=N/NC(=O)C2CCN(C(=O)c3ccc(O)c(O)c3Cl)C2)[C@H](C(=O)O)N2C(=O)C[C@H]2S1(=O)=O (stereo partly drawn) [Example 38, (2S,3R,5R)-3-((E)-(2-(1-(2-chloro-3,4-dihydroxybenzoyl)pyrrolidine-3-carbonyl)hydrazono)methyl)-3-methyl-7-oxo-4-thia-1-azabicyclo[3.2.0]heptane-2-carboxylic acid 4,4-dioxide] | < 3.70 | 5.23 | < 3.70 | < 3.70 | < 3.70 | 5.62 | 5.12 | MIC (A.b TNP 41709): > 128 µg/mL; MIC A.b TNP 41709 (A.b TNP 41709; Compounds + meropenem (1:1)): 2 µg/mL; MIC A.b TNP 41709 (A.b TNP 41709; Compounds + sulbactam (1:1)): 8 µg/mL; MIC (A.b TNP 41704): > 128 µg/mL; MIC A.b TNP 41704 (A.b TNP 41704; Compounds + meropenem (1:1)): 4 µg/mL; MIC A.b TNP 41704 (A.b TNP 41704; Compounds + sulbactam (1:1)): 4 µg/mL; MIC (A.b TNP 41708): > 128 µg/mL; MIC A.b TNP 41708 (A.b TNP 41708; Compounds + meropenem (1:1)): 4 µg/mL; MIC A.b TNP 41708 (A.b TNP 41708; Compounds + sulbactam (1:1)): 8 µg/mL; MIC (P. aeruginosa ATCC 27853): > 128 µg/mL; MIC (A. baumannii ATCC 19606): 8 µg/mL (≈ 15.1 µM); MIC (S. aureus ATCC 29213): 128 µg/mL (≈ 242 µM); MIC (E. faecium ATCC 700221): > 128 µg/mL; MIC (K. pneumoniae ATCC 43816): 32 µg/mL (≈ 60.5 µM); MIC [1]: > 128 µg/mL |
| C[C@]1(COC(=O)NNC(=O)c2ccc(O)c(O)c2)[C@H](C(=O)O)N2C(=O)C[C@H]2S1(=O)=O [Example 69, (2S,3R,5R)-3-(((2-(3,4-dihydroxybenzoyl)hydrazinecarbonyl)oxy)methyl)-3-methyl-7-oxo-4-thia-1-azabicyclo[3.2.0]heptane-2-carboxylic acid 4,4-dioxide] | < 3.70 | 4.19 | < 3.70 | < 3.70 | < 3.70 | 5.07 | 5.44 |  |
| C[C@]1(Cn2ccnn2)[C@H](C(=O)O)N2C(=O)C[C@H]2S1(=O)=O [Tazobactam, reference compound] | < 3.70 | 3.91 | 4.04 | < 3.70 | < 3.70 |  |  | pIC50 (AmpC_AB): 4.62 |
| O=C(NNC(=O)[C@@H]1CC[C@@H]2CN1C(=O)N2OS(=O)(=O)O)[C@@H]1CCCNC1 [Zidebactam, reference compound] | < 3.70 | 4.29 | 5.63 | < 3.70 | < 3.70 |  | 6.61 |  |
